Data set [1] relates to α1-acid glycoprotein (AGP). The conditions noted are these: literature, cited from earlier work.
The target in data set [2] is T1, α1-acid glycoprotein (AGP) (Homo sapiens, UniProt P02763).
T1 construct: Kd; [alprenolol]0=500 nM; 30 mM ammonium acetate p; Kd; other: MS detection
The experiment in a line: LSTDLPF-MS (APCI mass-spectrometry detection) Kd determination, alprenolol/AGP. In kind it is binding. The conditions noted are these: α1-acid glycoprotein (AGP) in buffer, pH 7.5, Kd. The method, then: The LSTDLPF-MS tandem was then used in Kd determination for a reversible binding pair of alprenolol and α1-acid glycoprotein (AGP).
MS experiments were carried out on a QTRAP 6500+ time-of-flight (Q-TOF) instrument (Sciex, Concord, ON, Canada) with a commercial Turbo V APCI ionization source. The optimal acceleration and focusing conditions were achieved by using 60 V declustering potential at 525° C. and 90 psi gas pressure. The analyses were performed in positive mode and scanned m/z 250 Da for alprenolol. The results were analyzed by using Analyst® QS 2.0 software. The propagation profiles obtained for [alprenolol]0=500 nM and varying [AGP]0 were reproducible (FIGS. 19A-19J). Experimental conditions were: internal capillary diameter=200 μm, capillary length=100 cm, flow rate of LPF=100 μL/min., loop's internal diameter=75 μm, loop's length=22.7 cm, loop's volume=1 μL; EM injection by 5 μL/min for 12 s (plug length=3.2 cm); “pre-separation” plug displacement by 5 μL/min for 12 s (3.2 cm displacement); [AGP]0 ranged from 0 to 1 mM; buffer was 30 mM ammonium acetate buffer at pH 7.5.
In this case, the screening phenomenon was characterized by enhancing signal of alprenolol with growing [AGP]0, (FIG. 16A). […] The method is also characterized by an acceptable reproducibility.

For data set [3], the target named is T2, BSA (Bos taurus, UniProt P02769). The conditions noted are these: known value, Andersson et al. Eur. J. Biochem. 1971; cited from earlier work.
T2 sequence (P02769 25-607): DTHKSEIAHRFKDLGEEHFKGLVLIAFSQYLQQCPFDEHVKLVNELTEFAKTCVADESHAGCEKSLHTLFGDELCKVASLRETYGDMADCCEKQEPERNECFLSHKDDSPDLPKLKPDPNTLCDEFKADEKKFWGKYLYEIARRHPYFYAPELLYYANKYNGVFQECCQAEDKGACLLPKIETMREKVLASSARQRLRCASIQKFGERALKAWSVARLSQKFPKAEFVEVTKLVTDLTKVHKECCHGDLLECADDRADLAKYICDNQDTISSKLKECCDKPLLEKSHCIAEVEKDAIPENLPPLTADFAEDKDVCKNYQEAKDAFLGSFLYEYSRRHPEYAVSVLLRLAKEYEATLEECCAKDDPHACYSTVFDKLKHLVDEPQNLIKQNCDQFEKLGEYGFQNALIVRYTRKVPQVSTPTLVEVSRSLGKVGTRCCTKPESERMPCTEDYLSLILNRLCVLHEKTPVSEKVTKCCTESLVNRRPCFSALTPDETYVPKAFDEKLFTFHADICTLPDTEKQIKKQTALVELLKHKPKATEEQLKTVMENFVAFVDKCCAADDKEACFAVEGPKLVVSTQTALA
The target in data set [4] is T2, BSA. The experiment in a line: LSTDLPF-MS (APCI mass-spectrometry detection) Kd determination, BSA/fluorescein. In kind it is binding, bovine. The procedure:
In another embodiment, the LSTDLPF setup was coupled with a mass-spectrometry (MS) detector. To facilitate complete dissociation of SM during ionization, an atmospheric pressure chemical ionization (APCI) ionization source was utilized (FIGS. 14A, 16A). The LSTDLPF-MS tandem was first used to study the same BSA/fluorescein binding pair. Experimental conditions were: internal capillary diameter=200 μm, capillary length=100 cm, flow rate of LPF=100 μL/min. loop's internal diameter=75 μm, loop's length=22.7 cm, loop's volume=1 μL, EM injection into the capillary followed by EM displacement from the capillary opening by 5 μL/min for 12 s (EM plug length=3.2 cm); “pre-separation” plug displacement by 5 μL/min for 12 s (3.2 cm displacement); [fluorescein]0=200 nM; and buffer was 30 mM ammonium acetate buffer at pH 7.5. MS experiments were carried out on a QTRAP 6500+ time-of-flight (Q-TOF) instrument (Sciex, Concord, ON, Canada) with a commercial Turbo V APCI ionization source. The optimal acceleration and focusing conditions were achieved by using 60 V declustering potential at 525° C. and 90 psi gas pressure. The analyses were performed in positive mode and scanned m/z 287 Da for fluorescein. The results were analyzed by using Analyst® QS 2.0 software.
The MS signal decreased with increasing [BSA]0 (FIG. 14A), due to the screening effect. The results presented repeatability (see FIGS. 15A-15I). Experimental conditions were: internal capillary diameter=200 μm, capillary length=100 cm, flow rate of LPF=100 μL/min. loop's internal diameter=75 μm, loop's length=22.7 cm, loop's volume=1 μL, EM injection by 5 μL/min for 12 s (plug length=3.2 cm); “pre-separation” plug displacement by 5 μL/min for 12 s (3.2 cm displacement); [fluorescein]0=200 nM; [BSA]0 ranged from 0 to 1 mM; and buffer was 30 mM ammonium acetate buffer at pH 7.5. MS experiments were carried out on a QTRAP 6500+ time-of-flight (Q-TOF) instrument (Sciex, Concord, ON, Canada) with a commercial Turbo V APCI ionization source. […] The results were analyzed by using Analyst® QS 2.0 software

Data set [5] has as its target T2, BSA. The experiment in a line: LSTDLPF-based Kd determination with fluorescence detection, BSA/fluorescein. In kind it is binding, bovine. The procedure: In an experimental implementation of the method, LSTDLPF was carried out with flow conditions inside the capillary tube being as close to LPF as possible. It is known that LPF is distorted at the capillary entrance open to a large-volume reservoir (A. Molki, L. Khezzar, A. Goharzadeh Eur. J. Phys. 2013, 34, 1127-1134).
The system operates in the following manner. A loop 116 is utilized in order to deliver the same amount of sample consistently. […] To complete the filling of the loop, the sample 110 was introduced into the loop at 15 μL/min during 12 s (t1) by using a sample low pressure pump 126, which represents 3 times the volume of the loop (FIG. 8A). The low-pressure pump 126 may be, but is not limited to, a syringe pump or a peristaltic pump. While the loop is being filled as depicted in FIG. 8A, the capillary 108 is conditioned with the mobile phase 118 at high flow rate by using a high-pressure pump 124. This high flow rate corresponds to the flow rate utilized during the propagation and will be noted Qprop afterward.
The injection of the sample is illustrated in FIG. 8B. The positions of both valves 102 and 104 have been switched. In this configuration, the low-pressure pump 128 delivered the mobile phase 112 via the injection loop 116 which contained the sample or equilibrium mixture (EM) 110. […]

Structures are written as SMILES. Like-named read-outs stand apart in the source and are kept apart here.

The source of these data is patent US11506660B2, “Method and system for determining equilibrium dissociation constant of a reversible binding pair” (priority 2017, dated 2022).

As a reminder, the Kd is the constant that tells how readily two partners part at equilibrium.

T1 sequence (P02763 19-201): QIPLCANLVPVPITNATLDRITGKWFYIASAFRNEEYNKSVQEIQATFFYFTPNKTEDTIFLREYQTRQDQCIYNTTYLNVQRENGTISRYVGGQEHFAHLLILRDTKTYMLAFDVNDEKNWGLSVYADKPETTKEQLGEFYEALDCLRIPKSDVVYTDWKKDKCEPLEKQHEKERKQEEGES

Regarding `C=CCc1ccccc1OCC(O)CNC(C)C` (stereo not shown) [alprenolol, Alprenolol], the Kd in data set [1] (Bao et al. ChemBioChem 2011) was 2.1 ± 0.3 µM; in data set [1] (Imamura et al. Chirality 2002), 1.6 ± 0.1 µM. Also, the Kd at 500 nM was 1.8 ± 0.2 µM in data set [2] (after 2-step screening compensation (FIG. 16C), [alprenolol]0=500 nM, 30 mM ammonium acetate pH 7.5) and 4.1 ± 0.8 µM in data set [2] (measurements performed on a different day (FIGS. 20A-20D)).

In the case of `O=C1OC2(c3ccc(O)cc3Oc3cc(O)ccc32)c2ccccc21` [fluorescein], the Kd was approximately 30 µM in data set [3]; 32 ± 4 µM in data set [4] (after 2-step screening compensation, first experiment (FIG. 14C), [fluorescein]0=200 nM, read-out: Kd); 24 ± 2 µM in data set [4] (after screening compensation, reproduced on another day (FIG. 18), read-out: Kd); 26 ± 2 µM in data set [4] (weighted average of the two Kd measurements, read-out: weighted average of Kd); 23 ± 3 µM in data set [5] (single experiment, non-linear regression of isotherm with Equation 5, [fluorescein]0=200 nM, 30 mM ammonium acetate pH 7.5, error = SD of regression, read-out: Kd); 20 ± 2 µM in data set [5] (triplicate experiment on three different days, error = SD of the three experiments, read-out: global Kd).
